{
  "source": "patent US8492510B2",
  "about": "“Multifunctional degradable nanoparticles with control over size and functionalities” (Vanderbilt University, priority 2007, dated 2013)",
  "system": "human microvascular endothelial cells (HMEC)",
  "test": "Internalization into HMEC, temperature effect and control experiments (confocal microscopy)",
  "assay_type": "cell-based",
  "conditions": "10 uM, 60 min, 37° C.",
  "method": "The human microvascular endothelial cells (HMEC) cells were incubated with conjugates (10 uM) for 2.5 min at 4° C. or at 37° C.\nThe HMEC cells were incubated with conjugates (1 uM) for 30 min at 4° C. or at 37° C.\n(b) The HMEC cells were incubated with Boc-protected guanidinylated FD-2 (10 uM) for 60 min at 37° C.\nInternalization of FD-1 and FD-2 in mammalian cells was assessed using two different cell lines and a previously described method [Futaki, S.; Nakase, I.; Suzuki, T.; Youjun, Y.; Sugiura, Y. Biochemistry 2002, 41, 7925.] with NIH-3T3 fibroblasts and HMEC (human microvascular endothelial cells) and a Zeiss LSM 510 confocal microscope. […] [Futaki, S.; Nakase, I.; Suzuki, T.; Youjun, Y.; Sugiura, Y. Biochemistry 2002, 41, 7925; Vivès, E.; Brodin, P.; Lebleu, B. J. Biol. Chem. 1997, 272, 16010.] Furthermore, the extent of internalization increased in an incubation time-dependent manner, and it was observed that after just 10 min, the fluorescence intensity of cells treated with FD-2 was near saturation. […] L. Org. Lett. 2005, 7, 4815.] but also regulate the subcellular localization of the molecule and its putative cargo. […] Therefore, the dendrimer with a hexyl spacer crosses the cell membrane faster than the molecule with an ethyl chain. On the other hand, the localization patterns can also be controlled by the length of the spacer. […]",
  "data": [
    {"substance": "fluorescein isothiocyanate [free FITC]", "values": [
      {"measurement": "fluorescence of cells in control experiments", "value": "no"}
    ]}
  ]
}
